What follows are molecules tested on GM01896 cells (MPS II dermal fibroblasts) (assay: Assay 1: MPS cellular assay, MPS II (heparan sulfate disaccharide biomarkers by LC-MS)). Conditions: Assay 1 for MPS II, heparan sulfate disaccharide biomarkers (I2a4, I2a6, I2S0 and/or I2S6), read-out: IC50 Range.
Format: cell-based, human
Summary of the method: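 MPS II patient dermal fibroblasts (GM01896) treated with compound at ≤30 μM for 4 to 21 days. Heparan sulfate GAGs isolated by anion exchange, digested with heparinases I-III, aniline-tagged against [13C6]aniline standards and quantified by LC-MS; IC50 from curve fitting. Viability monitored by alamar blue or ATP.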

| Molecule | IC50 |
| --- | --- |
| [6-(1-methyl(1H-indazol-6-yl))-2-morpholin-4-ylpyrimidin-4-yl][4-(3-methylpyrazolyl)phenyl]amine | < 500 nM |
| CN(C)CCn1cnc2cc(-c3cc(Nc4ccc(Cl)cc4)nc(N4CCOCC4)n3)ccc21 [[2-(5-{6-[(4-chlorophenyl)amino]-2-morpholin-4-ylpyrimidin-4-yl}benzimidazolyl)ethyl]dimethylamine] | 1000 to 5000 nM |

Same assay, conditions: Homo sapiens, Fibroblast, Assay 1 for MPS II, heparan sulfate disaccharide biomarkers (I2a4, I2a6, I2S0 and/or I2S6), read-out: IC50 Range

| Molecule | IC50 |
| --- | --- |
| Cn1nc(CCN2CCOCC2)c2ccc(-c3cc(Nc4ccc(-c5ncc[nH]5)cc4)nc(N4CCOCC4)n3)cc21 [(4-imidazol-2-ylphenyl){6-[1-methyl-3-(2-morpholin-4-ylethyl)(1H-indazol-6-yl)]-2-morpholin-4-ylpyrimidin-4-yl}amine] | 1000 to 5000 nM |
| Cc1cnn(-c2ccc(Nc3cc(-c4ccc5c(C)nn(C)c5c4)nc(N4CCOCC4)n3)cc2)n1 [[6-(1,3-dimethyl(1H-indazol-6-yl))-2-morpholin-4-ylpyrimidin-4-yl][4-(4-methyl(1,2,3-triazol-2-yl))phenyl]amine] | < 500 nM |
| CN(C)CCn1cc2ccc(-c3cc(Nc4ccc(Cl)cc4)nc(N4CCOCC4)n3)cc2n1 [[2-(6-{6-[(4-chlorophenyl)amino]-2-morpholin-4-ylpyrimidin-4-yl}(2H-indazol-2-yl))ethyl]dimethylamine] | 500 to 1000 nM |
| Cn1ncc2ccc(-c3cc(Nc4ccc5[nH]ncc5c4)nc(N4CCOCC4)n3)cc21 [1H-indazol-5-yl[6-(1-methyl(1H-indazol-6-yl))-2-morpholin-4-ylpyrimidin-4-yl]amine] | 1000 to 5000 nM |
| CNC(=O)c1ccc(Nc2cc(-c3ccc4cnn(CCCN5CCOCC5)c4c3)nc(N3CCOCC3)n2)cc1 [N-methyl[4-({2-morpholin-4-yl-6-[1-(3-morpholin-4-ylpropyl)(1H-indazol-6-yl)]pyrimidin-4-yl}amino)phenyl]carboxamide] | < 500 nM |
| Cn1nc(CCN2CCOCC2)c2ccc(-c3cc(Nc4ccc(-n5nccn5)cc4)nc(N4CCOCC4)n3)cc21 [{6-[1-methyl-3-(2-morpholin-4-ylethyl)(1H-indazol-6-yl)]-2-morpholin-4-ylpyrimidin-4-yl}(4-(1,2,3-triazol-2-yl)phenyl)amine] | < 500 nM |
| Clc1ccc(Nc2cc(-c3ccc4ncn(CCCN5CCCC5)c4c3)nc(N3CCOCC3)n2)cc1 [(4-chlorophenyl){2-morpholin-4-yl-6-[1-(3-pyrrolidinylpropyl)benzimidazol-6-yl]pyrimidin-4-yl}amine] | 500 to 1000 nM |
| Cc1nn(C)c2cc(-c3cc(Nc4ccc(-c5cocn5)cc4)nc(N4CCOCC4)n3)ccc12 [[6-(1,3-dimethyl(1H-indazol-6-yl))-2-morpholin-4-ylpyrimidin-4-yl](4-(1,3-oxazol-4-yl)phenyl)amine] | < 500 nM |
| Cc1nn(C)c2cc(-c3cc(Nc4ccc(-c5ncon5)cc4)nc(N4CCOCC4)n3)ccc12 [[6-(1,3-dimethyl(1H-indazol-6-yl))-2-morpholin-4-ylpyrimidin-4-yl](4-(1,2,4-oxadiazol-3-yl)phenyl)amine] | 500 to 1000 nM |
| Cn1c(CN2CCOCC2)nc2ccc(-c3cc(Nc4ccc(Cl)cc4)nc(N4CCOCC4)n3)cc21 [(4-chlorophenyl){6-[1-methyl-2-(morpholin-4-ylmethyl)benzimidazol-6-yl]-2-morpholin-4-ylpyrimidin-4-yl}amine] | 500 to 1000 nM |
| Cn1nc(CCN2CCOCC2)c2ccc(-c3cc(Nc4ccc(-c5ncco5)cc4)nc(N4CCOCC4)n3)cc21 [{6-[1-methyl-3-(2-morpholin-4-ylethyl)(1H-indazol-6-yl)]-2-morpholin-4-ylpyrimidin-4-yl}(4-(1,3-oxazol-2-yl)phenyl)amine] | 500 to 1000 nM |
| Cn1nc(CCN2CCOCC2)c2ccc(-c3cc(Nc4ccc(-c5nnc(C6CC6)[nH]5)cc4)nc(N4CCOCC4)n3)cc21 [[4-(5-cyclopropyl(4H-1,2,4-triazol-3-yl))phenyl]{6-[1-methyl-3-(2-morpholin-4-ylethyl)(1H-indazol-6-yl)]-2-morpholin-4-ylpyrimidin-4-yl}amine] | < 500 nM |
| Cn1ncc2ccc(-c3cc(Nc4ccc(-c5cc[nH]c5)cc4)nc(N4CCOCC4)n3)cc21 [[6-(1-methyl(1H-indazol-6-yl))-2-morpholin-4-ylpyrimidin-4-yl](4-pyrrol-3-ylphenyl)amine] | 500 to 1000 nM |
| Cn1nc(CCCO)c2ccc(-c3cc(Nc4ccc(Cl)cc4)nc(N4CCOCC4)n3)cc21 [3-(6-{6-[(4-chlorophenyl)amino]-2-morpholin-4-ylpyrimidin-4-yl}-1-methyl-1H-indazol-3-yl)propan-1-ol] | 500 to 1000 nM |
| Cc1nn(C)c2cc(-c3cc(Nc4ccc(-c5ncno5)cc4)nc(N4CCOCC4)n3)ccc12 [[6-(1,3-dimethyl(1H-indazol-6-yl))-2-morpholin-4-ylpyrimidin-4-yl](4-(1,2,4-oxadiazol-5-yl)phenyl)amine] | 1000 to 5000 nM |
| Cc1nn(C)c2cc(-c3cc(Nc4ccc(-c5cc[nH]c5)cc4)nc(N4CCOCC4)n3)ccc12 [[6-(1,3-dimethyl(1H-indazol-6-yl))-2-morpholin-4-ylpyrimidin-4-yl](4-pyrrol-3-ylphenyl)amine] | 500 to 1000 nM |
| Cn1cnc2cc(-c3cc(Nc4ccc(Cl)cc4)nc(N4CCOCC4)n3)ccc21 [(4-chlorophenyl)[6-(1-methylbenzimidazol-5-yl)-2-morpholin-4-ylpyrimidin-4-yl]amine] | 500 to 1000 nM |

| Molecule | IC50 |
| --- | --- |
| Cc1ccc(Nc2cc(-c3ccc4ncn(C)c4c3)nc(N3CCOCC3)n2)cc1 [[6-(1-methylbenzimidazol-6-yl)-2-morpholin-4-ylpyrimidin-4-yl](4-methylphenyl)amine] | 1000 to 5000 nM |
| Cc1nn(C)c2nc(-c3cc(Nc4ccc(Cl)cc4)nc(N4CCOCC4)n3)ccc12 [[6-(1,3-dimethylpyrazolo[4,5-e]pyridin-6-yl)-2-morpholin-4-ylpyrimidin-4-yl](4-chlorophenyl)amine] | 1000 to 5000 nM |
| Cn1ncc2ccc(-c3cc(Nc4ccc5cn[nH]c5c4)nc(N4CCOCC4)n3)cc21 [1H-indazol-6-yl[6-(1-methyl(1H-indazol-6-yl))-2-morpholin-4-ylpyrimidin-4-yl]amine] | 1000 to 5000 nM |
| Cc1nn(C)c2cc(-c3cc(Nc4ccc5c(C)c(C)n(C)c5c4)nc(N4CCOCC4)n3)ccc12 [[6-(1,3-dimethyl(1H-indazol-6-yl))-2-morpholin-4-ylpyrimidin-4-yl](1,2,3-trimethylindol-6-yl)amine] | 1000 to 5000 nM |
| Cn1c(CCN2CCCC2)nc2ccc(-c3cc(Nc4ccc(Cl)cc4)nc(N4CCOCC4)n3)cc21 [(4-chlorophenyl){6-[1-methyl-2-(2-pyrrolidinylethyl)benzimidazol-6-yl]-2-morpholin-4-ylpyrimidin-4-yl}amine] | < 500 nM |
| Clc1ccc(Nc2cc(-c3ccc4cn[nH]c4c3)nc(N3CCOCC3)n2)cc1 [N-(4-chlorophenyl)-6-(1H-indazol-6-yl)-2-morpholinopyrimidin-4-amine] | 1000 to 5000 nM |
| Cn1nc(CCN2CCOCC2)c2ccc(-c3cc(Nc4ccc(Br)cc4)nc(N4CCOCC4)n3)cc21 [(4-bromophenyl){6-[1-methyl-3-(2-morpholin-4-ylethyl)(1H-indazol-6-yl)]-2-morpholin-4-ylpyrimidin-4-yl}amine] | 500 to 1000 nM |
| Cn1cnc2ccc(-c3cc(Nc4ccc(NC(=O)OC(C)(C)C)cc4)nc(N4CCOCC4)n3)cc21 [(tert-butoxy)-N-(4-{[6-(1-methylbenzimidazol-6-yl)-2-morpholin-4-ylpyrimidin-4-yl]amino}phenyl)carboxamide] | 1000 to 5000 nM |
| CN(C)c1nn(C)c2cc(-c3cc(Nc4ccc(Cl)cc4)nc(N4CCOCC4)n3)ccc12 [(6-{6-[(4-chlorophenyl)amino]-2-morpholin-4-ylpyrimidin-4-yl}-1-methyl(1H-indazol-3-yl))dimethylamine] | 1000 to 5000 nM |
| Cn1nc(Cl)c2ccc(-c3cc(Nc4ccc(Cl)cc4)nc(N4CCOCC4)n3)cc21 [[6-(3-chloro-1-methyl(1H-indazol-6-yl))-2-morpholin-4-ylpyrimidin-4-yl](4-chlorophenyl)amine] | 1000 to 5000 nM |
| COc1ccc(Cn2cc(-c3ccc(Nc4cc(-c5ccc6c(C)nn(C)c6c5)nc(N5CCOCC5)n4)cc3)cn2)cc1 [[6-(1,3-dimethyl(1H-indazol-6-yl))-2-morpholin-4-ylpyrimidin-4-yl](4-{1-[(4-methoxyphenyl)methyl]pyrazol-4-yl}phenyl)amine] | 1000 to 5000 nM |
| Cc1nn(C)c2cc(-c3cc(Nc4ccc(-c5c[nH]cn5)cc4)nc(N4CCOCC4)n3)ccc12 [[6-(1,3-dimethyl(1H-indazol-6-yl))-2-morpholin-4-ylpyrimidin-4-yl](4-imidazol-4-ylphenyl)amine] | 1000 to 5000 nM |
| CNC(=O)c1ccc(Nc2cc(-c3ccc4ncn(C)c4c3)nc(N3CCOCC3)n2)cc1 [N-methyl(4-{[6-(1-methylbenzimidazol-6-yl)-2-morpholin-4-ylpyrimidin-4-yl]amino}phenyl)carboxamide] | < 500 nM |
| Cc1nn(C)c2cc(-c3cc(Nc4ccc(-c5ccn[nH]5)cc4)nc(N4CCOCC4)n3)ccc12 [[6-(1,3-dimethyl(1H-indazol-6-yl))-2-morpholin-4-ylpyrimidin-4-yl](4-pyrazol-5-ylphenyl)amine] | < 500 nM |
| Cn1ncc2ccc(-c3cc(Nc4ccc(-c5cnn[nH]5)cc4)nc(N4CCOCC4)n3)cc21 [(4-(1H-1,2,3-triazol-5-yl)phenyl)[6-(1-methyl(1H-indazol-6-yl))-2-morpholin-4-ylpyrimidin-4-yl]amine] | 1000 to 5000 nM |
| Cn1ccc2ccc(Nc3cc(-c4ccc5c(CCN6CCOCC6)nn(C)c5c4)nc(N4CCOCC4)n3)cc21 [(1-methylindol-6-yl){6-[1-methyl-3-(2-morpholin-4-ylethyl)(1H-indazol-6-yl)]-2-morpholin-4-ylpyrimidin-4-yl}amine] | < 500 nM |
| CNC(=O)c1ccc(Nc2cc(-c3ccc4cnn(CCCN5CCCC5)c4c3)nc(N3CCOCC3)n2)cc1 [N-methyl[4-({2-morpholin-4-yl-6-[1-(3-pyrrolidinylpropyl)(1H-indazol-6-yl)]pyrimidin-4-yl}amino)phenyl]carboxamide] | < 500 nM |

Reference: patent US20190151312A1, “HEPARAN SULFATE BIOSYNTHESIS INHIBITORS FOR THE TREATMENT OF DISEASES” (BioMarin Pharmaceutical Inc., priority 2014, published 2019)
